In the supplement of paper PMC12325586:

Test system: MIA PaCa-2
[1] = OFD1 knockdown: no (no doxycycline)
[2] = OFD1 knockdown: yes (Tet-on shOFD1, 100 ng/mL doxycycline)

| Structure (SMILES) | IC50 cell viability [1] [µM] | IC50 cell viability [2] [µM] |
| --- | --- | --- |
| Cc1cc(C)c2c(c1)[C@@H](N(Cc1cc(C(F)(F)F)cc(C(F)(F)F)c1)c1nnn(C)n1)CCCN2C[C@H]1CC[C@H](C(=O)O)CC1 [S2925] | 7.47 | 5.94 |
| COc1cccc2c1C(=O)c1c(O)c3c(c(O)c1C2=O)C[C@@](O)(C(=O)CO)C[C@@H]3O[C@H]1C[C@H](N)[C@@H](O)[C@H](C)O1 [S1223] | 0.63 | 0.58 |
| Cc1ccc([C@@H]2O[C@H](CO)[C@@H](O)[C@H](O)[C@H]2O)cc1Cc1ccc(-c2ccc(F)cc2)s1 [S2760] | 21.9 | 21.6 |
| CC(C)(C)Cn1c(N)nc2ccc(-c3[nH]c(C(C)(C)C)nc3-c3ccc(F)cc3)nc21 [S1494] | 4.04 | 3.46 |
| C[C@@H](Oc1cc(-c2cnn(C3CCNCC3)c2)cnc1N)c1c(Cl)ccc(F)c1Cl [S1068] | 1.73 | 1.39 |
| CS(=O)(=O)N1CCN(Cc2cc3nc(-c4cccc5[nH]ncc45)nc(N4CCOCC4)c3s2)CC1 [S1065] | 10.2 | 7.9 |
